According to paper PMC12020277, “Pharmacology and macrophage modulation of HPGDS inhibitor PK007 demonstrate reduced disease severity in DMD-affected muscles of the mdx mouse model” (Skeletal Muscle, 2025):

Biological target: T1, hematopoietic prostaglandin D2 synthase (HPGDS) (Homo sapiens, UniProt O60760)
T1 construct: human recombinant
Test: fluorescence polarisation probe-displacement assay (Cayman kit #[…]), recombinant human HPGDS
Format: binding

T1 sequence (O60760 whole entry): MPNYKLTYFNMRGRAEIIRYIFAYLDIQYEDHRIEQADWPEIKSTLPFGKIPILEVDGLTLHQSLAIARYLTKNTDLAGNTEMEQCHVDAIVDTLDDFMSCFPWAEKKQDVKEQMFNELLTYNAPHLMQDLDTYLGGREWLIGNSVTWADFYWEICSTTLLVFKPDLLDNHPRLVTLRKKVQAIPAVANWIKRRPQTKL

IC50: 1540 ± 260 nM
Substance: PK007
